{
  "source": "patent US20140161748A1",
  "about": "“METHODS FOR TREATING SUN-EXPOSED SKIN” (UNIVERSITY OF MANITOBA, priority 2011, published 2014)",
  "key": {"[1]": {"tested_on": "SKH-1 mice", "conditions": "10 mg/kg in drinking water; after 2 weeks of UV treatment; vs untreated mice", "procedure": "(§1) Ten female SKH-1 mice were obtained from Jackson Laboratory. They were 9 weeks old at the start of the experiment.\n(§2) Animals were ordered at 7 weeks of age and half were pretreated with quetiapine (10 mg/kg dissolved in drinking water) for two weeks prior to commencement of UV exposure. The other half were left untreated. Quetiapine was obtained in powder form (batch 1677) from Avlon Works, in Bristol, England, a production site for the pharmaceutical company AstraZeneca. All mice were exposed three times a week for a total of 10 weeks. Exposure intensity was 90 mJ/cm and exposure duration was 7.5 minutes. […] Excessive damage to the skin was not the goal of this study. The lamp used was manufactured by UVP (Upland, Calif., model UVLM-28).\n(§3) Animals were free moving in a standard cage, with the light positioned about 30 cm above them. The intensity was measured and animals were not placed under the light until it had reached a stable value."}, "[2]": {"tested_on": "SKH-1 mice", "procedure": "as §1, §2, §3\nSkin samples were taken from the dorsal region (along the midline of the mouse close to the hindlimbs) of each mouse using a 6 mm dermal biopsy punch.\nThree histological stains were used. Each stain was prepared by the histology technician in the Department of Human Anatomy and Cell Science at the University of Manitoba. Hematoxylin and Eosin (H&E) was used to examine skin structure. Van Gieson stain was used to examine collagen structure, and Verhoeff-Van Gieson stain was used to examine both collagen and elastin fibres.\nSkin samples from all animals were embedded in paraffin wax blocks using standard techniques and sectioned at a thickness of 5 microns.\nStaining with Hematoxylin and Eosin.\nStaining with Van Gieson.\nStaining with Verhoeff-Van Gieson."}, "[3]": {"tested_on": "Fibroblast cells", "conditions": "fibroblasts, doses 0, 0.01, 0.1 and 1 μM", "procedure": "Fibroblast cells were plated at different densities, and exposed to UVC for various time (0 s, 10 s, 60 s and 360 s), then incubated for another 24 h, 48 h or 72 h (PIT). MTT assay was used to evaluate cell viability."}, "[4]": {"tested_on": "fibroblasts", "procedure": "(§4) Fibroblasts were exposed to varying intensities of UVB, 0, 20, 40 and 60 mJ/cm^2 and were examined 24, 48 or 72 hours after. […] MMP-1 or matrix metalloproteinase-1 is an enzyme that is involved in the breakdown of the extracellular matrix in normal physiological processes such as embryonic development, reproduction and tissue modeling. It is also responsible for breaking down collagen. proCOL1A1 is one component that makes up a molecule of type 1 collagen, which is found in most connective tissue, including the skin."}, "[5]": {"tested_on": "proCOL1A1", "conditions": "0.1 μM; UVB 20 mJ/cm^2; compared to UVB control cells", "procedure": "as §4"}, "[6]": {"tested_on": "fibroblasts", "conditions": "UVB and Quetiapine for 48 hours"}, "[7]": {"tested_on": "fibroblasts", "procedure": "Cultures were examined after 24, 48, and 72 hours after treatment with 0, 0.01, 0.1, 10, or 100 μM of Quetiapine.", "remark": "listed apart in the source"}, "[8]": {"conditions": "10 mg/kg in drinking water, UV three times a week for 10 weeks"}},
  "data": [
    {"smiles": "OCCOCCN1CCN(C2=Nc3ccccc3Sc3ccccc32)CC1", "note": "[Quetiapine, 2-(2-(4-dibenzo[b,f][1,4]thiazepine-11-yl-1-piperazinyl)ethoxy)ethanol]", "values": [
      {"measurement": "skin irritation", "setting": "[1]", "value": "less irritation"},
      {"measurement": "skin redness", "setting": "[1]", "value": "less redness"},
      {"measurement": "collagen appearance (Van Gieson)", "setting": "[2]; [8]", "value": "darker staining and uniform, intact appearance of collagen bands"},
      {"measurement": "elastic fibre number and structure (Verhoeff-Van Gieson)", "setting": "[2]; [8]", "value": "better preservation of elastic fibre number and structure"},
      {"measurement": "epidermis thickness (Hematoxylin and Eosin)", "setting": "[2]; [8]", "value": "increased thickness in the untreated group compared to control and quetiapine treated animals"},
      {"measurement": "UV induced collagen breakdown and formation of abnormal elastic fibres (summary)", "setting": "[2]; chronically UV exposed mice", "value": "appears to prevent UV induced collagen breakdown and the formation of abnormal elastic fibres"},
      {"measurement": "prevention of UVC induced cytotoxicity", "setting": "[3]", "value": "did not prevent UVC induced cytotoxicity regardless of the dose given"},
      {"measurement": "alleviation of UVB induced cell viability (MTT assay)", "setting": "[4]", "value": "not to alleviate UVB induced cell viability"},
      {"measurement": "proCOL1A1 content in cell lysates", "setting": "[5]", "value": "significantly increase"},
      {"measurement": "effect on cell death (PI-Hoechst 33342 staining)", "setting": "[6]", "value": "no effect on cell death"},
      {"measurement": "cytotoxic effect on fibroblasts", "setting": "[7]; fibroblast cultures examined 24, 48 and 72 hours after treatment", "value": "cytotoxic effect on fibroblasts at high concentrations"},
      {"measurement": "survival at 1, 10, and 100 μM", "setting": "[7]; fibroblasts, 1, 10 and 100 μM", "value": "decreased further"},
      {"measurement": "concentration at which survival started becoming affected", "setting": "[7]; fibroblasts, 24, 48, 72 hours, 0-100 μM", "value": 100, "unit": "nM"}
    ]}
  ]
}
